Measured values reported in patent US20260283149A1, “DEVELOPMENT AND APPLICATION OF SYNTHETIC INHIBITORS OF PHOTOSYNTHESIS” (University of Florida Research Foundation, Incorporated, priority 2023, published 2026).

Assays:
[1] = system: Synechocystis sp. PCC6803 cells; experiment: Growth inhibition of Synechocystis sp. PCC 6803 in liquid BG-11 medium; type: cell-based; conditions: for inhibitory activity on growth of Synechocystis sp. PCC6803 cells (overall grade): tested at 10 and 25 microM; for growth inhibition of Synechocystis sp. PCC6803 cells: liquid BG-11 medium with glucose, growth monitored at 700 nm
Experimental: (§1) FIG. 11. Growth inhibition of Arabidopsis and Synechocystis by duroquinone, the unprenylated structural analogue of methyl-plastoquinone-9. (A) Structure of duroquinone. (B) Seven-day-old Arabidopsis plants (Col-0) grown on MS medium containing 1% sucrose (w/v) and 0, 10, 25, 50, or 100 μM duroquinone in 12-hour days (110 μE m^−2 s^−1) at 22° C. (C) Growth curve of Synechocystis sp. PCC 6803 at 30° C. in liquid BG-11 medium containing glucose, and with or without duroquinone. Data are means of three biological replicates±SE. Asterisks indicate significant differences (0 μM vs. 10 μM duroquinone) as determined by Fisher's test (p<α=0.05) from an analysis of variance.
FIG. 13. Growth inhibition of Synechocystis sp. PCC 6803 by structural analogues of methyl-plastoquinone-9. Synechocystis sp. PCC6803 cells were grown in liquid BG-11 medium containing […] (80 μE m^−2 s^−1; 24-hour days; 30° C.). Cell growth was monitored spectrophotometrically at 700 nm.
FIG. 15. Growth curve of Synechocystis treated with analogues grown photomixotrophically and photoautotrophically. Wild-type Synechocystis was grown in BG-11 and either with 5 mM glucose for photomixotrophic or w/o for photoautotrophic with treatment of either 0, 10 or 25 μM of the corresponding methylplastoquinone analog w/ 0.095% EtOH final and grown at a continuous light intensity of 50μ photons m^−2s^−1 at 30° C. with shaking 125 rpm. Data are means of 2 biological replicates ±SD.
Several analogues of Methylplastoquinone (FIG. 14) were tested for their ability to act as herbicides. Synechocystis were grown photomixotrophically (BG-11 plus 5 mM glucose) and photoautotrophically (BG-11 without glucose) at a continuous light intensity of 50μ photons m^−2s^−1 at 30° C. with shaking 125 rpm. The cultures were further treated with 0, 10, or 25 μM Doruquinone (DQ), 2,6-dimethly-1,4-benzoquinone (DMBQ), 2,6-dimethoxy-1,4-benzoquinone (DMOBQ), 2,6-dichloro-1,4-benzoquinone (DCBQ), or 2-chloro-1,4-benzoquinone (CBQ), each with […] ethanol.

Arabidopsis [2] = experiment: Growth of Arabidopsis plants on MS medium containing the compound; type: in vivo, Arabidopsis thaliana (Col-0); conditions: 1% sucrose, 10-100 μM, applied at 2 to 50 times lower concentrations than standard herbicides such as DCMU or glyphosate
Experimental: as §1
Ten day-old Arabidopsis plants (Col-0) were grown on MS medium containing 1% sucrose (w/v), 0.095% EtOH, and 0, 10, 25, 50 or 100 μM methyl-plastoquinone analogues in 12-h days (photon flux of 110 μmol m^−2s^−1) at 22° C.

Arabidopsis [3] = experiment: Accumulation of methyl-plastoquinone-9 in dexamethasone-induced plastid-targeted COQ5 Arabidopsis transgenics; type: in vivo, Arabidopsis thaliana; conditions: transgenics are seedling lethal
Synechocystis = experiment: Accumulation of methyl-plastoquinone-9 in COQ5-expressing Synechocystis DPhQ-MT knockout cells; type: cell-based, Synechocystis sp. PCC 6803; conditions: especially when cultured photoautotrophically; clones evolve suppressor mutations in COQ5
Source text: For expression in Synechocystis, gene sll1653 and N-terminally truncated versions of At5g57300 (S23→M23) and At1g23360 (V28→M28) cDNAs were PCR amplified using primers that contained the NdeI(5′) and BglII(3′) restriction sites. PCR fragments were cloned into NdeI/BglII-digested pSynExp-2 expression vector (Sattler S E et al. “Characterization of tocopherol cyclases from higher plants and cyanobacteria. Evolutionary implications for tocopherol synthesis and function.” Plant Physiol. 132, 2184-2195 (2003)), and the resulting constructs were introduced into Synechocystis Δsll1653::aadA knockout cells (Lohmann A et al. 2006). Transformed cells were selected on BG-11 plates containing and chloramphenicol ([…]), and spectinomycin (15 μg/ml) at 22° C. in 12-hour days (70 μE m^−2s^−1). […] Induction and analyses of chlorophyll fluorescence were performed on one month-old dark-adapted plants using a FluorCam 800 MF imaging system (Photon Systems Instruments).
To further investigate why clade 2 C-methyltransferases evolved strict substrate preference, the effect of replacing cognate cyanobacterial and plastid-targeted DPhQ-MT with a bifunctional COQ5 counterpart was examined. […] These constructs were then introduced into a Synechocystis DPhQ-MT knockout strain and the growth of individual clones was scored via serial dilution assays (FIG. 3 A-B).

SMILES | inhibitory activity on growth of Synechocystis sp. PCC6803 cells (overall grade) [1] | growth inhibition of Synechocystis sp. PCC6803 cells ([1]; 25 microM) | growth inhibition of Synechocystis sp. PCC6803 cells ([1]; 10 microM) | also measured
O=C1C=C(Cl)C(=O)C(Cl)=C1 [2,6-dichloro-1,4-benzoquinone] | low to marginal inhibitory activity |  |  | 
CC1=CC(=O)C=C(C)C1=O [2,6-dimethyl-1,4-benzoquinone] | intermediate inhibitory activity | complete growth inhibition |  | 
CC1=C(C)C(=O)C(C)=C(C)C1=O [duroquinone] |  | complete growth inhibition | complete growth inhibition | toxicity in Arabidopsis (Arabidopsis [2]): marked toxicity
COC1=CC(=O)C=C(OC)C1=O [2,6-dimethoxy-1,4-benzoquinone] | low to marginal inhibitory activity |  |  | 
O=C1C=CC(=O)C(Cl)=C1 [2-chloro-1,4-benzoquinone] | as effective as duroquinone | complete growth inhibition | complete growth inhibition | 
CC(C)=CCCC(C)=CCCC(C)=CCCC(C)=CCCC(C)=CCCC(C)=CCCC(C)=CCCC(C)=CCC/C(C)=C/CC1=C(C)C(=O)C(C)=C(C)C1=O [methyl-plastoquinone-9] |  |  |  | toxicity of accumulation in Arabidopsis COQ5 transgenics (Arabidopsis [3]): acutely toxic; toxicity of accumulation in Synechocystis COQ5 transformants (Synechocystis): acutely toxic
